Results as given in US11998008B2, “Pesticides and methods of controlling pests” (The State of Israel, Ministry of Agriculture & Rural …, priority 2017, dated 2024).
Read-outs that look alike come from different tables or passages of the source.

Assays:
[1] = system: A. alternata; test: Fungicidal activity assay on PDA in sealed Petri dish (growth inhibition and mortality); type: cell-based, Alternaria alternata; conditions: for MFC: Alternaria alternata, read-out: M - Mortality, minimal concentration that killed the fungus; for MFC / M - Mortality, minimal concentration that killed the fungus: NA + number = still viable in the highest concentration tested (given as >); for I - Inhibition class: 2 days; for I - Inhibition, minimal concentration that inhibited the growth: concentration to which the class above belongs
Experimental: (§1) In exemplary procedures, the fungicidial activity of the compounds listed in Table 2 were examined by activity assays as follow: Petri dishes, 90 mm in diameter, with air volume of 80 mL, contained 10-12 mL of growth medium comprising potato dextrose agar (PDA) (Acumedia, Lansing, Michigan, USA) amended with tetracycline at 12 μg/mL. Each compound was placed on a disconnected cover from an Eppendorf tube that was located in the middle of the Petri dish and a hyphae-containing plug of each test fungus was added to the culture plate. In exemplary procedures, the tested compounds trans-2-heptenal, trans-2-octenal were tested in comparison with octanal, trans-2-octen-1-ol, methyl trans-2-octenoate, trans-3-octen-2-one and 3-pentenenitrile. In addition, cyclic ketones as 2-cyclopenten-1-one, 2-cyclohexen-1-one and α-tetralone were also examined. Then, the culture plate was sealed with parafilm and incubated at room-temperature for 2 days, after which the growth of the test fungi in those dishes was compared with those in the test compound-free control dishes. At the end of the assay, the viability of each test fungus was evaluated by transferring inoculum plugs to fresh PDA plates and observing the growth that developed within the next 2 days. The test fungi used in this study included but were not limited to Alternaria alternata, Botrytis cinerea, Sclerotinia rolfsii, Penicillium digitatum, Fusarium oxysporum f. sp. radicis-cucumerinum and Rhizoctonia solani.

[2] = system: P. digitatum; test: as above; type: cell-based, Penicillium digitatum; conditions: for MFC: Penicillium digitatum, read-out: M - Mortality, minimal concentration that killed the fungus; for MFC / M - Mortality, minimal concentration that killed the fungus: NA + number = still viable in the highest concentration tested (given as >); for I - Inhibition class: 2 days; for I - Inhibition, minimal concentration that inhibited the growth: concentration to which the class above belongs
Experimental: as §1

[3] = system: S. rolfsii; test: as above; type: cell-based, Sclerotinia rolfsii; conditions: for MFC: Agroathelia rolfsii, read-out: M - Mortality, minimal concentration that killed the fungus; for I - Inhibition class: 2 days; for I - Inhibition, minimal concentration that inhibited the growth: concentration to which the class above belongs
Experimental: as §1, with “Each” for “In exemplary procedures, the fungicidial activity of the compounds listed in Table 2 were examined by activity assays as follow: Petri dishes, 90 mm in diameter, with air volume of 80 mL, contained 10-12 mL of growth medium comprising potato dextrose agar (PDA) (Acumedia, Lansing, Michigan, USA) amended with tetracycline at 12 μg/mL. Each”

[4] = system: B. cinerea; test: as above; type: cell-based, Botrytis cinerea; conditions: for MFC: Botrytis cinerea, read-out: M - Mortality, minimal concentration that killed the fungus; for MFC / M - Mortality, minimal concentration that killed the fungus: NA + number = still viable in the highest concentration tested (given as >); for I - Inhibition class: 2 days; for I - Inhibition, minimal concentration that inhibited the growth: concentration to which the class above belongs
Experimental: as §1

[5] = system: R. solani; test: microbe, parasite or virus in culture; type: cell-based; conditions: R. solani; for MFC: Rhizoctonia solani, read-out: M - Mortality, minimal concentration that killed the fungus
Experimental: as §1, with “Each” for “In exemplary procedures, the fungicidial activity of the compounds listed in Table 2 were examined by activity assays as follow: Petri dishes, 90 mm in diameter, with air volume of 80 mL, contained 10-12 mL of growth medium comprising potato dextrose agar (PDA) (Acumedia, Lansing, Michigan, USA) amended with tetracycline at 12 μg/mL. Each”

[6] = system: F. oxysporum f. sp. radicis-cucumerium; test: Fungicidal activity assay on PDA in sealed Petri dish (growth inhibition and mortality); type: cell-based, Fusarium oxysporum f. sp. radicis-cucumerinum; conditions: for MFC: Fusarium oxysporum, read-out: M - Mortality, minimal concentration that killed the fungus
Experimental: as §1, with “Each” for “In exemplary procedures, the fungicidial activity of the compounds listed in Table 2 were examined by activity assays as follow: Petri dishes, 90 mm in diameter, with air volume of 80 mL, contained 10-12 mL of growth medium comprising potato dextrose agar (PDA) (Acumedia, Lansing, Michigan, USA) amended with tetracycline at 12 μg/mL. Each”

[7] = system: Meloidogyne javanica second stage juveniles (J2s); test: Nematocidal activity: viability of J2 nematodes after 2 days exposure to the compound in a sealed box; type: in vivo; conditions: for Activity: the most effective concentration: concentration to which the class of the same cell belongs
From the text: In exemplary procedures, the sedentary root-knot nematode from the genus Meloidogyne javanica second stage juveniles (J2s) was propagated on greenhouse-grown nematode-susceptible tomato Lycopersicon esculentum cv. ‘Avigail 870’ (Hazera, Shikmim, Israel), and nematode eggs were bulk-extracted from the roots with 0.05% (v/v) sodium hypochlorite (NaOCl) followed by sucrose flotation and successive sievings through nylon filters of 300, 120, 60, and 30 μm mesh sizes (AD Sinun Technologies, Petach Tikvah, Israel). For hatching J2, extracted eggs were placed on 30-μm sieves (AD Sinun Technologies) in 0.01 M MES (2-(N-morpholino) ethanesulfonic acid hydrate) pH 6.5 buffer under aseptic conditions in darkness for 5 days, and hatching J2s were collected for further experiments.
Seven vials, each containing 300 J2 nematodes with 0.5 mL of 0.01 M 2-(N-morpholino)ethanesulfonic acid (MES) buffer, were exposed to cyclic ketone compounds in order to examine their nematocidal activity and reduction in viability. In addition, a humid environment in a sealed 1 L box was maintained by addition 5 ml of distilled H2O to a 50-mm Petri plate. The box was sealed after compound addition into each 50-mm Petri plate together with 5-250 mg of perlite particles and incubated for 2 days in the dark at 25±1° C. C5 and C6 saturated and α,β-unsaturated cyclic ketones were tested for their nematocidal activity. The J2 nematodes viability was examined following exposure to the cyclic ketone compounds, by a straightforward small-scale nematode extraction method, based on the traditional Baermann funnel method. Briefly, all nematode suspensions were loaded onto 30-μm (AD Sinun Technologies) filters (1.0-1.5 cm height, 1.1-2.0 cm^3 internal area), and the nematodes were washed twice with 300 μL of 0.01 M MES buffer in order to remove any residues. Then, filters holding nematodes were placed into 15 mL Falcon centrifuge tubes, each containing 900 μL of 0.01 M of MES buffer. These filters allow active passage of only living J2s while paralyzed or dead nematodes remain on top of the filter. The whole apparatus including the filter holding the nematodes and the Falcon tubes were placed in the dark for 3 h at 25±1° C. Then, the filters were removed and the viable nematodes, which were able to actively cross the filter toward the 0.01 M of MES buffer, were collected from the Falcon tube and counted using a Nematode Counting Slide (Chalex LLC, Portland, OR, USA) and a SV11 stereomicroscope (Zeiss, Jena, Germany).
Data were analyzed by the JMP 12 software package (SAS Inc., Cary, NC, USA). Mean numbers of viable J2s under various conditions were subjected to one-way analysis of variance (ANOVA), followed by the Tukey-Kramer multiple comparison test, with significance set at P<0.05.

[8] = system: test fungi; test: Fungicidal activity assay on PDA, summaries over the test fungi; type: cell-based; conditions: for fungicidal activity in words: comparison within the series
Experimental: as §1

[9] = S. rolfsii, NA + number = still viable in the highest concentration tested (given as >)
[10] = NA + number = still viable in the highest concentration tested (given as >)
[11] = concentration to which the class above belongs

Row | Compound | MFC [1] [µg/mL] | MFC [2] [µg/mL] | MFC [3, 9] [µg/mL] | MFC [4] [µg/mL] | MFC [5, 10] [µg/mL] | MFC [6, 10] [µg/mL] | also measured
1 | CC(C)CC(=O)CC(C)C [2,6-dimethyl-4-heptanone] | > 2500 | > 2500 | 2500 | > 2500 | – | – | –
2 | CC=CCC#N [3-pentenenitrile] | – | – | > 25 | – | > 25 | > 25 | –
3 | CCCC(=O)CCC [4-heptanone] | 2500 | > 2500 | 2500 | 1250 | – | – | –
4 | CC(C)=CCCC(C)=CC=O [Citral] | 25 | > 125 | 25 | 25 | – | – | –
5 | O=C1CCCCC1 [Cyclohexanone] | – | – | 500 | – | > 250 | > 250 | nematocidal activity in words ([7]; comparison within the series): nematocidal effects at substantially higher concentrations
6 | CCCCCCCCCC=O [Decanal] | – | – | > 25 | – | > 25 | > 25 | –
7 | CCOC(=O)C=Cc1ccccc1 [Ethyl cinnamate] | > 1250 | > 1250 | > 1250 | > 1250 | – | – | –
8 | CC(C)=CCCC(C)=CCCC(C)=CCO [Farnesol] | > 1250 | > 1250 | > 1250 | > 1250 | – | – | –
9 | CCCCCCCCCCCC=O [Lauric aldehyde] | – | – | – | – | – | – | I - Inhibition class ([5]; 2 days): NI (<50% growth inhibition); M - Mortality, minimal concentration that killed the fungus [5, 10]: > 25 ppm; I - Inhibition, minimal concentration that inhibited the growth [5, 11]: 25 ppm; fungicidal activity in words [8]: lower activity; I - Inhibition class ([3]; S. rolfsii): NI (<50% growth inhibition); M - Mortality, minimal concentration that killed the fungus [3, 9]: > 25 ppm; I - Inhibition, minimal concentration that inhibited the growth ([3]; S. rolfsii): 25 ppm; I - Inhibition class ([6]; 2 days): NI (<50% growth inhibition); M - Mortality, minimal concentration that killed the fungus [6, 10]: > 25 ppm; I - Inhibition, minimal concentration that inhibited the growth [6, 11]: 25 ppm
10 | CCCCC/C=C/C(=O)OC [Methyl trans-2-octenoate] | 125 | 125 | 125 | 125 | – | – | concentration that completely inhibited the fungi growth ([8]; dependent on the fungus tested): 125 ppm
11 | CCCCCCCCC=O [Nonanal] | – | – | 25 | – | > 25 | > 25 | –
12 | CCCCCCCC=O [Octanal] | – | – | > 25 | – | 12.5 | > 25 | fungicidal activity in words [8]: less fungicidal efficiency
13 | COc1ccc(C=O)cc1 [p-Anisaldehyde] | – | – | – | – | – | – | MFC [3]: > 1250 µg/mL
14 | CCCCCCC/C=C/C=O [trans-2-decenal] | – | – | – | – | – | – | fungicidal activity in words [8]: lower activity
15 | CCCC/C=C/C=O [trans-2-heptenal] | 12.5 | 12.5 | 6.25 | 125 | 12.5 | 12.5 | concentration that completely inhibited the fungi growth ([8]; dependent on the fungus tested): 6.25-25 ppm; concentrations at which fungi were not viable ([8]; dependent on the fungus tested): 6.25-125 ppm
16 | CCC/C=C/C=O [trans-2-hexen-1-al] | – | – | 12.5 | – | 12.5 | 25 | –
17 | CCCCCC/C=C/C=O [trans-2-nonenal] | – | – | > 25 | – | > 25 | 6.25 | –
18 | CCCCC/C=C/CO [trans-2-octen-1-ol] | 125 | 50 | 80 | 500 | – | – | concentration that completely inhibited the fungi growth ([8]; dependent on the fungus tested): 50 ppm
19 | CCCCC/C=C/C(=O)O [trans-2-octenoic acid] | > 125 | > 125 | > 125 | > 125 | – | – | –
20 | CC/C=C/C=O [trans-2-pentenal] | 25 | 25 | 25 | 25 | 25 | 25 | –
21 | CCCC/C=C/C(C)=O [trans-3-octen-2-one] | 50 | 50 | 50 | 50 | – | – | concentration that completely inhibited the fungi growth ([8]; dependent on the fungus tested): 50 ppm
22 | O=C/C=C/c1ccccc1 [trans-cinnamaldehyde] | – | – | > 1250 | – | – | – | –
23 | R-(−)-Carvone | – | – | – | – | – | – | I - Inhibition class [1]: SI (Strong inhibition - 100% of growth inhibition compared to control.); M - Mortality, minimal concentration that killed the fungus [1]: > 1250 ppm; I - Inhibition, minimal concentration that inhibited the growth [1]: 125 ppm; I - Inhibition class [2]: MI (Medium inhibition - 76-99% of growth inhibition); M - Mortality, minimal concentration that killed the fungus [2]: > 1250 ppm; I - Inhibition, minimal concentration that inhibited the growth [2]: 625 ppm; I - Inhibition class ([3]; S. rolfsii): MI (Medium inhibition - 76-99% of growth inhibition); M - Mortality, minimal concentration that killed the fungus [3, 9]: > 1250 ppm; I - Inhibition, minimal concentration that inhibited the growth ([3]; S. rolfsii): 125 ppm; I - Inhibition class [4]: MI (Medium inhibition - 76-99% of growth inhibition); M - Mortality, minimal concentration that killed the fungus [4]: > 1250 ppm; I - Inhibition, minimal concentration that inhibited the growth [4]: 25 ppm; Activity: the most effective concentration [7]: 250 ppm
24 | trans-2-heptanol | – | – | – | – | – | – | I - Inhibition class [1]: SI (Strong inhibition - 100% of growth inhibition compared to control.); M - Mortality, minimal concentration that killed the fungus [1]: 500 ppm; I - Inhibition, minimal concentration that inhibited the growth [1]: 125 ppm; I - Inhibition class [2]: SI (Strong inhibition - 100% of growth inhibition compared to control.); M - Mortality, minimal concentration that killed the fungus [2]: 1250 ppm; I - Inhibition, minimal concentration that inhibited the growth [2]: 125 ppm; I - Inhibition class ([3]; S. rolfsii): SI (Strong inhibition - 100% of growth inhibition compared to control.); M - Mortality, minimal concentration that killed the fungus [3, 9]: 500 ppm; I - Inhibition, minimal concentration that inhibited the growth ([3]; S. rolfsii): 125 ppm; I - Inhibition class [4]: SI (Strong inhibition - 100% of growth inhibition compared to control.); M - Mortality, minimal concentration that killed the fungus [4]: 500 ppm; I - Inhibition, minimal concentration that inhibited the growth [4]: 125 ppm; Activity: reduction in J2s viability relative to non exposed control J2s (class) ([7]; at the concentration given, 2 days incubation): L (51-75% reduction in viability); Activity: the most effective concentration [7]: 500 ppm
